Data reported in PubChem BioAssay (NCI).
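Briefly, cells in 96-well plates were exposed to five compound concentrations for 48 h, and endpoints were estimated by linear interpolation. The concentration for 50% growth inhibition is given as GI50. TGI is the concentration that stops growth completely.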

Legend:
Assay in all cases: NCI tumour cell line growth inhibition, 48 h
SN12K1 renal = test system: SN12K1 renal
KM20L2 colon = test system: KM20L2 colon
DLD-1 colon = test system: DLD-1 colon
DMS 114 small cell lung = test system: DMS 114 small cell lung
SNB-78 CNS = test system: SNB-78 CNS
DMS 273 small cell lung = test system: DMS 273 small cell lung
HOP-18 NSCLC = test system: HOP-18 NSCLC
P388 leukemia = test system: P388 leukemia
P388/ADR leukemia = test system: P388/ADR leukemia
XF 498 CNS = test system: XF 498 CNS
M19-MEL melanoma = test system: M19-MEL melanoma
SR leukemia = test system: SR leukemia
LXFL 529 NSCLC = test system: LXFL 529 NSCLC
RXF-631 renal = test system: RXF-631 renal

O=c1oc2cc(O)ccc2c2oc3cc(O)ccc3c12
TGI (SN12K1 renal): > 112 µM
TGI (KM20L2 colon): 123 µM
TGI (DLD-1 colon): > 125 µM
TGI (DMS 114 small cell lung): > 12.5 µM
TGI (SNB-78 CNS): > 86.3 µM
TGI (DMS 273 small cell lung): > 121 µM
TGI (HOP-18 NSCLC): > 125 µM
TGI (P388 leukemia): > 125 µM
TGI (P388/ADR leukemia): > 125 µM
TGI (XF 498 CNS): > 19.8 µM
TGI (M19-MEL melanoma): > 125 µM

O=C1NC(=NCc2ccc(F)cc2)N/C1=C\c1ccccc1Cl
TGI (SR leukemia): > 100 µM

O=C1CCCCN1
TGI (SN12K1 renal): > 1120 µM
TGI (KM20L2 colon): > 1120 µM
TGI (DLD-1 colon): > 1120 µM
TGI (DMS 114 small cell lung): > 1120 µM
TGI (SNB-78 CNS): > 1120 µM
TGI (DMS 273 small cell lung): > 1120 µM
TGI (HOP-18 NSCLC): > 1120 µM
TGI (P388 leukemia): > 707 µM
TGI (P388/ADR leukemia): > 1120 µM
TGI (XF 498 CNS): > 112 µM
TGI (M19-MEL melanoma): > 1120 µM

CCCCC(=O)c1c(O)ccc2c(C)cc(=O)oc12
TGI (SR leukemia): > 100 µM

O=C1CCC2(CC1CCS(=O)c1ccccc1)OCCO2 (stereo not given)
TGI (SR leukemia): > 100 µM

C=CCn1c(=O)c(Br)nn(CCOCP(=O)(OCC)OCC)c1=O
TGI (SR leukemia): > 100 µM

CC[C@@]1(O)C[C@H](OC2CC(N(C)C)C(OC3CC(O)C(OC4CCC(=O)C(C)O4)C(C)O3)C(C)O2)c2c(cc3c(c2O)C(=O)c2c(O)cccc2C3=O)C1C(=O)OC (stereo not given in full)
TGI (KM20L2 colon): 4.64 µM
GI50 (SR leukemia): 0.00493 µM
TGI (SR leukemia): 1.23 µM
TGI (DLD-1 colon): 5.46 µM
TGI (DMS 114 small cell lung): 0.474 µM
TGI (HOP-18 NSCLC): 1.85 µM
GI50 (XF 498 CNS): 0.0025 µM
TGI (XF 498 CNS): 0.294 µM
TGI (LXFL 529 NSCLC): 1.68 µM
TGI (M19-MEL melanoma): 0.799 µM

Cn1c2ccccc2c2c3c(c4c5ccccc5n(C5OC(CO)C(O)C(O)C5O)c4c21)C(=O)OC3=O (stereo not given)
TGI (SR leukemia): > 100 µM

OCC(O)COCn1cc(Cn2ncc3c(NCc4ccccc4)ncnc32)nn1 (stereo not given)
TGI (SR leukemia): > 100 µM

CC(=O)OCCCCN1C(=O)CSc2ccccc21
TGI (SR leukemia): > 100 µM

CN1c2c(nc(N)[nH]c2=O)NCC1CCNc1ccc(C(=O)NC(CCC(=O)O)C(=O)O)cc1 (stereo not given)
TGI (SN12K1 renal): 1810 µM
TGI (KM20L2 colon): 2280 µM
TGI (SR leukemia): 2530 µM
TGI (DLD-1 colon): 2350 µM
TGI (DMS 114 small cell lung): 1770 µM
TGI (SNB-78 CNS): 2660 µM
TGI (DMS 273 small cell lung): 1560 µM
TGI (HOP-18 NSCLC): 2950 µM
TGI (P388 leukemia): 651 µM
TGI (P388/ADR leukemia): 1410 µM
TGI (XF 498 CNS): 2150 µM
TGI (M19-MEL melanoma): 778 µM

CCOc1cc(C2SCC(=O)N2c2ccc3c(c2)Oc2c(Cl)c4c(c(Cl)c2=N3)Oc2cc(N3C(=O)CSC3c3ccc(O)c(OCC)c3)ccc2N=4)ccc1O (stereo not given)
TGI (SR leukemia): > 100 µM

C=CCc1cccc2cc(C(=O)Nc3ccc(C)cc3)c(=N)oc12
TGI (SR leukemia): > 100 µM

O=C1/C(=C/C=C/c2ccccc2)N=C(c2ccccc2)N1c1ccc(S(=O)(=O)Nc2nccs2)cc1
TGI (SR leukemia): > 100 µM

CC(=O)OCC1=CC2OC(=O)C3=COC(OC4OC(CO)C(O)C(O)C4O)C1C32 (stereo not given)
TGI (SR leukemia): > 100 µM

N#Cc1ccc([N+](=O)[O-])cc1NC(N)=S
TGI (KM20L2 colon): > 100 µM
TGI (SR leukemia): > 100 µM
TGI (RXF-631 renal): > 100 µM
TGI (SNB-78 CNS): > 100 µM
TGI (DMS 273 small cell lung): > 100 µM
TGI (HOP-18 NSCLC): > 100 µM
TGI (XF 498 CNS): > 100 µM
TGI (LXFL 529 NSCLC): 32.6 µM
TGI (M19-MEL melanoma): > 100 µM

CCOC(=O)[C@@]1(C(C)=O)CC(C)=C(C)C[S@]1=O
TGI (SR leukemia): > 100 µM

CC(C)C1=CC2=CC[C@@H]3[C@](C)(CCC[C@@]3(C)C(=O)O)[C@H]2CC1
TGI (KM20L2 colon): > 100 µM
TGI (SR leukemia): > 100 µM
TGI (DLD-1 colon): > 100 µM
TGI (DMS 114 small cell lung): > 100 µM
TGI (RXF-631 renal): > 100 µM
TGI (SNB-78 CNS): > 96.2 µM
TGI (DMS 273 small cell lung): > 100 µM
TGI (HOP-18 NSCLC): > 100 µM
TGI (XF 498 CNS): > 100 µM
TGI (LXFL 529 NSCLC): > 100 µM
TGI (M19-MEL melanoma): > 100 µM

Nc1ncnc2c1ncn2[C@@H]1O[C@H](COP(=O)(O)OP(=O)(O)OC[C@H]2O[C@@H](OCCCO)[C@H](O)[C@@H]2O)[C@@H](O)[C@H]1O
TGI (SR leukemia): > 100 µM

CC1=C[C@H]([C@H]2C=C(C)C(C(N)=O)=CN2Cc2c(Cl)cccc2Cl)N(Cc2c(Cl)cccc2Cl)C=C1C(N)=O
TGI (SR leukemia): > 75 µM

CC(=O)OC12CC[N+]3(C)CCCCC3C1=Nc1ccccc12 (stereo not given)
TGI (SR leukemia): > 100 µM

CC[C@]1(Cc2ccc(OC)c(OC)c2)C2CC(C(=O)OC)ON2O[C@H](OCc2ccccc2)[C@@H]1OC(C)=O (stereo not given in full)
TGI (SR leukemia): > 100 µM
